Experimental findings from article doi:10.1101/2023.11.02.565282v1 (biorxiv, 2023) are described below.

The target of test [1] is T1, GluK2(VCQ)2a (Rattus norvegicus, UniProt P42260, I567V/Y571C). The test can be described thus: calcium-sensitive fluorescence assay. The format is cell-based.
Test [2] addresses T1, GluK2(VCQ)2a. Briefly: calcium-sensitive fluorescence assay. The format is cell-based. The settings on record: agonist; with 150 µM BPAM344; Fluo buffer pH 7.4.

Where two headings read alike, the source gives them in different places.

T1 sequence (P42260 32-908 I567V/Y571C): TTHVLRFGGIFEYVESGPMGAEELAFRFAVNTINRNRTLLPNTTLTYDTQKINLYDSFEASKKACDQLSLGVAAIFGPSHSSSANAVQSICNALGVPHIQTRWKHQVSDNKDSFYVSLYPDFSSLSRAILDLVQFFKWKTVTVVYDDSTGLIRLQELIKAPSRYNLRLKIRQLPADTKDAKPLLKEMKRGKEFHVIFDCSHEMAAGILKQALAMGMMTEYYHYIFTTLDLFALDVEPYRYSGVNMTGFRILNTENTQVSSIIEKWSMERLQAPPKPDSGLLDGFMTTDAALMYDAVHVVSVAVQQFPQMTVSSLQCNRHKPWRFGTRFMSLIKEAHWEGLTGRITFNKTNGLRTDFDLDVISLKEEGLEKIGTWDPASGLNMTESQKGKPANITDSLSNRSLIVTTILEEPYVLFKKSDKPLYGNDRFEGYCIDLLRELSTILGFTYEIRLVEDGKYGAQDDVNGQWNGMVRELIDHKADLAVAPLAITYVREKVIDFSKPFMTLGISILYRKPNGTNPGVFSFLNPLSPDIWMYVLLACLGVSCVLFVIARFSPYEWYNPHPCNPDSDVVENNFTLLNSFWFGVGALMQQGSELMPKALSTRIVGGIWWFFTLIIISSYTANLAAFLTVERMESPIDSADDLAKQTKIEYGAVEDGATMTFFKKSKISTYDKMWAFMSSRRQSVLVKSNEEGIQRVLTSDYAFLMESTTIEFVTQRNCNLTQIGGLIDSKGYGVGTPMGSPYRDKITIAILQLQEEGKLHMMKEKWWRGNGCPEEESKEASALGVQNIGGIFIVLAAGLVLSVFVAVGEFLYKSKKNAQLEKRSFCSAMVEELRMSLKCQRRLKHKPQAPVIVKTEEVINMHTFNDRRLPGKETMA

On to `O=S1(=O)NCN(C2CC2)c2ccc(F)cc21` [BPAM344], for which the EC50 at GluK2(VCQ)2a [1] is 75.4 µM.

On to `C/C(=C/C=C/[C@@H](C)C(=O)O)[C@H]1CN[C@H](C(=O)O)[C@H]1CC(=O)O` [domoate], for which the EC50 at GluK2(VCQ)2a [2] was determined as 1.33 µM.
